{"source": "paper PMC8850458", "about": "“The AUTOTAC chemical biology platform for targeted protein degradation via the autophagy-lysosome system” (Nature Communications, 2022)", "key": {"[1]": {"tested_on": "p62 and LC3 punctate structures", "assay": "ICC of p62 and LC3 puncta formation and co-localization in HeLa cells", "assay_type": "cell-based", "conditions": "2.5 μM, 24 h", "method": "(§1) Cells were cultured on coverslips coated with poly-L-lysine (Sigma) to observe cellular localization of proteins. Using 4% paraformaldehyde in PBS (pH 7.4), the cells were fixed for 15 min at room temperature and washed three times for 5 min with PBS. After fixing, the cells were permeabilized with 0.5% Triton X-100 in PBS solution for 15 min and washed three times with PBS for 5 min. The cells were blocked containing 2% BSA in PBS solution for 1 h at room temperature. Subsequently, the cells were incubated with primary antibody diluted in 2% BSA/PBS solution overnight at 4 °C, followed by washing the cells three times for 10 min with PBS and incubated with Alexa Fluor-conjugated secondary antibody diluted in 2% BSA/PBS for 30 min at room temperature. Using a DAPI-containing mounting medium (Vector Laboratories), the coverslips were mounted on glass slides. Confocal images were taken by laser scanning confocal microscope 510 Meta (Zeiss) and analyzed by Zeiss LSM Image Browser (ver. 4.2.0.121). […] Quantification results are shown as mean ± S.D. or S.E.M. of three independent experiments"}, "[2]": {"tested_on": "p62-positive and WIPI2-positive punctate structures", "assay": "ICC of WIPI2-p62 co-localization in HeLa cells", "assay_type": "cell-based", "conditions": "HeLa expressing WIPI2-GFP, 2.5 μM, 6 h", "method": "as §1\nSupplementary Fig. 2. Characterization of p62-ZZ ligands (a, c, e) 3-D modeling of p62 […]\nμM, 6 h). (m) Quantification of l for co-localization (n=3, 50 cells). Scale bar, 10 µm. (n) […]"}, "[3]": {"tested_on": "autophagic turnover of p62 and LC3", "assay": "Autophagic flux assay in HeLa cells with or without HCQ", "assay_type": "cell-based", "conditions": "2.5 μM, 24 h, with or without HCQ 10 µM 24 h", "method": "Fig. 1 Nt-Arg-mimicking p62-ZZ ligands activate p62-dependent selective macroautophagy. a A model illustrating the mode of action of autophagy-targeting ligands. b Chemical structures of autophagy-targeting ligands. c In vitro pulldown assay in HEK293T cells of the 12-mer V-BiP peptide or autophagy-targeting ligands. d In vitro p62 oligomerization assay in HEK293T cells incubated with the p62-ZZ ligands in (b). e ICC of HeLa cells treated with p62-ZZ ligands in (b) (2.5 μM, 24 h). Scale bar, 10 μm. f, g Quantification of (e) for puncta formation and co-localization, respectively (n = 3 biologically independent experiments each counting 50 cells). h A schematic/formulae for autophagy flux index. i Autophagic flux assay in HeLa cells treated with YOK-1304 or YTK-105 (2.5 μM, 24 h) in the presence or absence of HCQ (10 µM, 24 h). Data are presented as mean values ± SD where relevant. P-values (from a two-sided unpaired t test): ***P < 0.000956 (for p62 punctate formation), ***P < 0.000539 (for LC3 punctate formation), ***P < 0.000925 (for p62-LC3 co-localization). Source data are provided with this paper. TEXT PRINTED IN THE PICTURE: (i) YOK 1304: Normalized p62 A.F. index: 2.8; Normalized LC3 II/I A.F. index: 4.2 | (i) YTK 105: Normalized p62 A.F. index: 4.6; Normalized LC3 II/I A.F. index: 11.2\nAdherent cells were washed with phosphate-buffered saline (PBS) and cell pellets were lysed in SDS-based sample buffer (277.8 mM Tris-HCI, pH 6.8, 4.4% LDS, 44.4% (v/v) glycerol) containing beta-mercaptoethanol. Alternatively, cell pellets or protein supernatants were lysed in 5X Laemmli sample buffer. Whole-cell lysates were separated using SDS-PAGE, and transferred onto polyvinyllidene difluoride membranes at 100 V for 2 h at 4 °C. The membrane was incubated with a blocking solution consisting 4% skim milk in PBS solution for 30 min at room temperature and incubated with primary antibodies overnight, followed by incubation with host-specific HRP-conjugated secondary antibodies (1:10000 dilution). For signal detection, the membrane was developed with a mixture of ECL solution (Thermo Fisher Scientific) using X-ray films. Densitometry of developed bands was measured and analyzed with ImageJ (NIH, Bethesda)."}, "[4]": {"assay": "WST-based cell viability assay in ACHN cells", "conditions": "human, ACHN cells; for viability at 0.01 µM / viability at 0.1 µM / viability at 1 µM / viability at 10 µM / viability at 50 µM / viability at 100 µM: ACHN"}, "ACHN cells [5]": {"tested_on": "ACHN cells", "assay": "WST-based cell viability assay in ACHN cells", "conditions": "ACHN, duplicates"}, "ACHN cells [6]": {"tested_on": "ACHN cells", "assay": "Wound healing assay in ACHN cells", "assay_type": "cell-based", "set-up": "wound area / wound area, Average: unit not given here", "conditions": "ACHN, 5 μM; for wound area: N=1, N=2", "method": "To analyze cell migration in two dimensions, U-87 MG or ACHN cells were plated to a monolayer. Cells were scratched with a sterile 10 μl pipette tip and the debris was removed using medium. Cells were treated with compounds and incubated for different time to monitor cell behavior. Photographs were obtained using a microscope at different time point."}, "[7]": {"conditions": "duplicates, read-out: WST assay viability relative to con = 100"}, "[8]": {"conditions": "read-out: WST assay viability, AVG %"}}, "note": "Several values for one entry are separate records, joined by “and”; a condition that tells them apart may be missing. Identical values can stand only once. Like-named read-outs stand apart in the source and are kept apart here.", "data": [{"smiles": "CC(C)NCC(O)COc1ccc(OCc2ccccc2)c(OCCCc2ccccc2)c1", "note": "(stereo not shown) [YOK-1304]", "values": [{"measurement": "LC3 puncta formation, AVG of cells of 50", "setting": "[1]", "result": 38.6667}, {"measurement": "LC3 puncta formation, percentage AVG", "setting": "[1]", "result": 77.3333, "unit": "%"}, {"measurement": "p62-LC3 colocalization, AVG of cells of 50", "setting": "[1]", "result": 37}, {"measurement": "p62-LC3 colocalization, percentage AVG", "setting": "[1]", "result": 74, "unit": "%"}, {"measurement": "p62 puncta formation, AVG of cells of 50", "setting": "[1]", "result": 40.3333}, {"measurement": "p62 puncta formation, percentage AVG", "setting": "[1]", "result": 80.6667, "unit": "%"}, {"measurement": "LC3 puncta formation, cells of 50 cells counted", "setting": "[1]; single experiments", "result": "29 and 49 and 38"}, {"measurement": "p62-LC3 colocalization, cells of 50 cells counted", "setting": "[1]; single experiments", "result": "36 and 39"}, {"measurement": "p62 puncta formation, cells of 50 cells counted", "setting": "[1]; single experiments", "result": "46 and 36 and 39"}, {"measurement": "WIPI2-GFP-p62 colocalization, AVG of cells of 50", "setting": "[2]", "result": 30.6667}, {"measurement": "WIPI2-GFP-p62 colocalization, percentage AVG", "setting": "[2]", "result": 61.3333, "unit": "%"}, {"measurement": "WIPI2-GFP-p62 colocalization, cells of 50 cells counted", "setting": "[2]; single experiments", "result": "28 and 23 and 41"}, {"measurement": "Normalized LC3 II/I A.F. index", "setting": "[3]", "result": 4.2}, {"measurement": "Normalized p62 A.F. index", "setting": "[3]", "result": 2.8}, {"measurement": "viability at 0.01 µM", "setting": "[4]; [7]", "result": 96.5, "unit": "%"}, {"measurement": "viability at 0.01 µM", "setting": "[4]; [8]", "result": 96, "unit": "%"}, {"measurement": "viability at 0.1 µM", "setting": "[4]; [7]", "result": 110, "unit": "%"}, {"measurement": "viability at 0.1 µM", "setting": "[4]; [8]", "result": 106, "unit": "%"}, {"measurement": "viability at 1 µM", "setting": "[4]; [7]", "result": 104, "unit": "%"}, {"measurement": "viability at 1 µM", "setting": "[4]; [8]", "result": 102, "unit": "%"}, {"measurement": "viability at 10 µM", "setting": "[4]; [7]", "result": 101, "unit": "%"}, {"measurement": "viability at 10 µM", "setting": "[4]; [8]", "result": 102, "unit": "%"}, {"measurement": "viability at 50 µM", "setting": "[4]; [7]", "result": 118, "unit": "%"}, {"measurement": "viability at 50 µM", "setting": "[4]; [8]", "result": 113, "unit": "%"}, {"measurement": "viability at 100 µM", "setting": "[4]; [7]", "result": 64.9, "unit": "%"}, {"measurement": "viability at 100 µM", "setting": "[4]; [8]", "result": 67.1, "unit": "%"}, {"measurement": "IC50", "setting": "[4]; WST-based viability assay, read-out: cytotoxicity IC50", "result": "> 20", "unit": "µM"}, {"measurement": "WST assay raw reading", "setting": "ACHN cells [5]; 0.01uM", "result": "0.964 and 0.955"}, {"measurement": "WST assay viability relative to con = 100", "setting": "ACHN cells [5]; 0.01uM", "result": 95.4624}, {"measurement": "WST assay raw reading", "setting": "ACHN cells [5]; 0.1uM", "result": "1.085 and 1.014"}, {"measurement": "WST assay raw reading", "setting": "ACHN cells [5]; 1uM", "result": "1.025 and 0.998"}, {"measurement": "WST assay viability relative to con = 100", "setting": "ACHN cells [5]; 1uM", "result": 100.423}, {"measurement": "WST assay raw reading", "setting": "ACHN cells [5]; 10uM", "result": "1.004 and 1.024"}, {"measurement": "WST assay viability relative to con = 100", "setting": "ACHN cells [5]; 10uM", "result": 103.422}, {"measurement": "WST assay raw reading", "setting": "ACHN cells [5]; 50uM", "result": "1.153 and 1.063"}, {"measurement": "WST assay viability relative to con = 100", "setting": "ACHN cells [5]; 50uM", "result": 107.922}, {"measurement": "WST assay raw reading", "setting": "ACHN cells [5]; 100uM", "result": "0.69 and 0.729"}, {"measurement": "WST assay viability relative to con = 100", "setting": "ACHN cells [5]; 100uM", "result": 69.3905}, {"measurement": "wound area, Average", "setting": "ACHN cells [6]; 0h", "result": 2209762}, {"measurement": "wound area, Average %", "setting": "ACHN cells [6]; 0h", "result": 0, "unit": "%"}, {"measurement": "wound area", "setting": "ACHN cells [6]; 0h", "result": "2287288 and 2132236"}, {"measurement": "wound area, Average", "setting": "ACHN cells [6]; 4h", "result": 1966032}, {"measurement": "wound area, Average %", "setting": "ACHN cells [6]; 4h", "result": 0, "unit": "%"}, {"measurement": "wound area", "setting": "ACHN cells [6]; 4h", "result": "2073039 and 1859025"}, {"measurement": "wound area, Average", "setting": "ACHN cells [6]; 12h", "result": 1228896}, {"measurement": "wound area, Average %", "setting": "ACHN cells [6]; 12h", "result": 0, "unit": "%"}, {"measurement": "wound area", "setting": "ACHN cells [6]; 12h", "result": "1307559 and 1150234"}, {"measurement": "wound area, Average", "setting": "ACHN cells [6]; 24h", "result": 122450}, {"measurement": "wound area, Average %", "setting": "ACHN cells [6]; 24h", "result": 0, "unit": "%"}]}]}
